Test: Multiple ascending dose study, plasma pharmacokinetics of Compound (1) and GHB
Assay type: in vivo, human
Description: The plasma concentrations of Compound (1) and GHB in plasma in healthy human subjects were measured using liquid chromatography tandem mass-spectroscopy and evaluated using PHOENIX™ WINNONLIN® version 8.1 (Pharsight Corporation, USA) and MICROSOFT® EXCEL® (Microsoft Corporation, USA).
All randomized subjects who received Compound (1), with available pharmacokinetic (PK) data and without relevant deviations interfering with the PK evaluations, were included. Subjects who received only placebo were excluded from the PK population. In addition, the PK population was used for the summaries and analyses of all PK data.
A multiple ascending dose study was undertaken to evaluate the pharmacokinetics of multiple doses of Compound (1) in 3 cohorts of healthy subjects (with 8 subjects/cohort). Within each cohort, the subjects were randomized to receive Compound (1) or placebo at a ratio of 6:2 (active: placebo) for 7 days (or up to 9 days if the cohort included a titration period).
After fasting for at least 3 hours following a standard meal, subjects were randomized on Day 1 and the first dose of study drug (either target dose or titration dose) was administered. The first cohort of subjects (Cohort 8) received the second dose administration at approximately four hours after receiving the first dose. The subsequent […] cohorts (Cohorts 9 and 10) received only one dose per day.
For the first cohort (Cohort 8), the dose used was 6.0 g divided into two equal doses four hours apart for 7 days starting from Day 4 “Dose Day 1” to Day 10 “Dose Day 7”. Subsequent Cohorts 9, 10 received a single daily dose of 4.5 g and 6.0 g during the titration period (Day 1 for Cohort 9, Day 1 and Day 2 for Cohort 10, and after a titration period for 7 days starting from Day 4 “Dose Day 1” to Day 10 “Dose Day 7”. Cohort 11 was not conducted due to API availability.

[1] = Cohort 8 (6.0 g/day divided into equal 2 doses), Dosing Day 4
[2] = Cohort 8 (6.0 g/day divided into equal 2 doses), Dosing Day 10
[3] = Cohort 9 (4.5 g/day in a single dose), Dosing Day 4
[4] = Cohort 9 (4.5 g/day in a single dose), Dosing Day 10
[5] = Cohort 10 (6.0 g/day in a single dose), Dosing Day 4

In the case of `CC(C)[C@H](N)C(=O)OCCCC(=O)O` [Compound (1), 4-((L-valyl)oxy)butanoic acid], the “Compound (1) CL/F, Max” value [1] is reported as 597 L/h, the “Compound (1) CL/F, Mean” value [1] is reported as 431 L/h and the “Compound (1) CL/F, Median” value [1] is reported as 405 L/h. For the same compound, the “Compound (1) CL/F, Min” value [1] was 315 L/h, the “Compound (1) plasma AUC0-inf, Max” value [1] was 19100 ng·h/mL and the “Compound (1) plasma AUC0-inf, Min” value [1] was 10100 ng·h/mL. For the same compound, the “Compound (1) plasma AUC0-tlast, Max” value [1] was 19000 ng·h/mL, the “Compound (1) plasma AUC0-tlast, Min” value [1] was 10000 ng·h/mL and the “Compound (1) plasma Cmax, Max” value [1] was 16700 ng/mL. The “Compound (1) plasma Cmax, Min” value [1] was 9600 ng/mL, the “Compound (1) plasma T1/2, Max” value [1] was 112 min and the “Compound (1) plasma T1/2, Min” value [1] was 13.2 min. The “Compound (1) plasma Tmax, Max” value [1] was 270 min, the “Compound (1) CL/F, Max” value [2] was 569 L/h and the “Compound (1) CL/F, Mean” value [2] was 430 L/h. For the same compound, the “Compound (1) CL/F, Median” value [2] was 430 L/h, the “Compound (1) CL/F, Min” value [2] was 280 L/h and the “Compound (1) plasma AUC0-inf, Max” value [2] was 21500 ng·h/mL. The “Compound (1) plasma AUC0-inf, Min” value [2] was 10700 ng·h/mL, the “Compound (1) plasma AUC0-tlast, Max” value [2] was 21400 ng·h/mL and the “Compound (1) plasma AUC0-tlast, Min” value [2] was 10500 ng·h/mL. For the same compound, the “Compound (1) plasma Cmax, Max” value [2] was 17000 ng/mL, the “Compound (1) plasma Cmax, Min” value [2] was 8700 ng/mL and the “Compound (1) plasma T1/2, Max” value [2] was 31.2 min. The “Compound (1) plasma T1/2, Min” value [2] was 14.4 min, the “Compound (1) plasma Tmax, Max” value [2] was 285 min and the “Compound (1) CL/F, Max” value [3] was 406 L/h. For the same compound, the “Compound (1) CL/F, Mean” value [3] was 378 L/h, the “Compound (1) CL/F, Median” value [3] was 382 L/h and the “Compound (1) CL/F, Min” value [3] was 338 L/h. The “Compound (1) plasma AUC0-inf, Max” value [3] was 13300 ng·h/mL, the “Compound (1) plasma AUC0-inf, Min” value [3] was 11100 ng·h/mL and the “Compound (1) plasma AUC0-tlast, Max” value [3] was 13200 ng·h/mL. For the same compound, the “Compound (1) plasma AUC0-tlast, Min” value [3] was 8300 ng·h/mL, the “Compound (1) plasma Cmax, Max” value [3] was 17800 ng/mL and the “Compound (1) plasma Cmax, Min” value [3] was 10500 ng/mL. The “Compound (1) plasma T1/2, Max” value [3] was 40.8 min, the “Compound (1) plasma T1/2, Min” value [3] was 16.8 min and the “Compound (1) CL/F, Max” value [4] was 488 L/h. For the same compound, the “Compound (1) CL/F, Mean” value [4] was 423 L/h, the “Compound (1) CL/F, Median” value [4] was 443 L/h and the “Compound (1) CL/F, Min” value [4] was 323 L/h. For the same compound, the “Compound (1) plasma AUC0-inf, Max” value [4] was 13900 ng·h/mL, the “Compound (1) plasma AUC0-inf, Min” value [4] was 9200 ng·h/mL and the “Compound (1) plasma AUC0-tlast, Max” value [4] was 13800 ng·h/mL. For the same compound, the “Compound (1) plasma AUC0-tlast, Min” value [4] was 9100 ng·h/mL, the “Compound (1) plasma Cmax, Max” value [4] was 17800 ng/mL and the “Compound (1) plasma Cmax, Min” value [4] was 9300 ng/mL. The “Compound (1) plasma T1/2, Max” value [4] was 50.4 min, the “Compound (1) plasma T1/2, Min” value [4] was 22.2 min and the “Compound (1) CL/F, Max” value [5] was 684 L/h. For the same compound, the “Compound (1) CL/F, Mean” value [5] was 390 L/h, the “Compound (1) CL/F, Median” value [5] was 316 L/h and the “Compound (1) CL/F, Min” value [5] was 265 L/h. For the same compound, the “Compound (1) plasma AUC0-inf, Max” value [5] was 22700 ng·h/mL, the “Compound (1) plasma AUC0-inf, Min” value [5] was 8800 ng·h/mL and the “Compound (1) plasma AUC0-tlast, Max” value [5] was 22600 ng·h/mL. The “Compound (1) plasma AUC0-tlast, Min” value [5] was 8700 ng·h/mL, the “Compound (1) plasma Cmax, Max” value [5] was 28000 ng/mL and the “Compound (1) plasma Cmax, Min” value [5] was 10500 ng/mL. For the same compound, the “Compound (1) plasma T1/2, Max” value [5] was 30.6 min and the “Compound (1) plasma T1/2, Min” value [5] was 20.4 min.

Reference: US11896573B2, “Pharmaceutical compositions and pharmacokinetics of a gamma-hydroxybutyric acid derivative” (priority 2020, dated 2024)
